Values of other authors in patent US4177199A, “Silver salts of phosphanilic acid” (Bristol-Myers Company, priority 1978, dated 1979).

Assays:
[1] = system: a variety of bacterial species
Histoplasma capsulatum = settings: mouse, in vivo, iv
[2] = laboratory animals
[3] = by admixture or salt formation
S. typhosa = settings: mice infected with S. typhosa
Ps. fluorescens = settings: mice infected with Ps. fluorescens
Plasmodium berghei = settings: mice infected with Plasmodium berghei
[4] = system: experimental tuberculosis
[5] = laboratory animals; remark: listed apart in the source

**Q.** What does the source list for `Nc1ccc(P(=O)(O)O)cc1` [phosphanilic acid]?
**A.** tubercularstatic activity in vitro (tuberculosis): good; in vitro activity among compounds tested ([1]; aromatic phosphonic and phosphinic acids): generally the most active of the compounds tested; activity compared with sulfathiazole ([1]; molar basis): approached that of sulfathiazole; protective effect against Histoplasma capsulatum infection (Histoplasma capsulatum): some protective effect; toxicity [2]: low; potentiation of various tetracycline antibiotics [3]: potentiation; efficacy in vivo in infected mice (S. typhosa): effective; efficacy in vivo in infected mice (Ps. fluorescens): effective; efficacy in vivo in infected mice (Plasmodium berghei): effective; effect in vivo against experimental tuberculosis [4]: no effect; absorption [5]: poor
